Patent publication US20090075925A1, “Methods and Compositions Related to APOBEC-1 Expression” (priority 2006, published 2009)
Where two headings read alike, the source gives them in different places. Blank lines part the entries; values can stand above or below the compound they belong to.

How the values were obtained:
PKC [1] = conditions: cited from earlier work
apoB mRNA editing = test system: apoB mRNA editing
Protocol: Protein phosphatase inhibitor studies. […] The compounds' effects on apoB mRNA editing were evaluated by RT-PCR and poisoned-primer extension analysis (Sowden et al. Rna 2:274-88 (1996)). The effect of 470 nM cantharidin on ACF subcellular distribution was investigated by treating primary hepatocyte cultures for 6 hours followed by nuclear and cytoplasmic extract preparation.
It was reasoned that if phosphorylation of ACF regulated editing activity, treatment of rat primary hepatocytes with phosphatase inhibitors might stimulate apoB mRNA editing activity. […] The experiments (n=4-6) were done over a number of months and therefore represent primary hepatocytes from several rats.
Editing activity was quantified from primary hepatocytes incubated with 10-100-times the EC50 of the various […] (Calbiochem).

PKA [2] = conditions: cited from earlier work
ACF = ACF phosphorylation in 32P-labeled rat primary hepatocytes (ACF immunoprecipitation, autoradiography); assay type: cell-based; conditions: 32Pi 500 μCi/ml, 6 hours
Protocol: In vivo phosphorylation of ACF. In vivo ^32P labeling was performed by intraperitoneal injection of rats with 12.5 mCi of orthophosphoric acid (10 mCi/ml ^32PO4; NEN, Boston, Mass.) buffered with 50 mM HEPES, pH 7.0 and 150 mM NaCl. After 4 hours, rats were sacrificed and hepatic cytoplasmic and nuclear extracts prepared. Primary hepatocyte cultures in 60 mm dishes were incubated in phosphate-free Minimum Essential Eagle Media (Sigma) containing 0.1 nM porcine insulin for 6 hours and subsequently in fresh media containing 10 nM insulin (equivalent to that seen in post-prandial serum) or 0.45% to 0.9% ethanol (AAPER Alcohol and Chemical Co., Shelbyville, Ky.) (Van Mater et al. (1998), Yang et al. (2000)) plus 2.0 mCi orthophosphoric acid. Cultures were labeled for 4 hours prior to extract preparation.
To evaluate the effect of phosphatase inhibition on ACF phosphorylation, cultures were pre-incubated for 2 hours with 470 nM cantharadin in phosphate-free Waymouth's media and subsequently supplemented with 0.5 mCi ^32pO4 and incubated for an additional 4 hours. Cultures were harvested and subcellular extracts prepared.
Immunological techniques. […] For immunoprecipitation analyses all radiolabeled extracts were adjusted to 5 mM MgCl2 and digested with 100 units of DNase I (Promega), RNase T1 (Roche, Ind.), and RNase A (Sigma) for 1 hour on ice to remove radiolabeled nucleic acid. Where applicable, extracts were incubated overnight with ACF CT antibody at 4° C. and subsequently reacted with Protein A-agarose (Oncogene Research Products, Boston, Mass.) pre-washed with 1×TBS/10 mM NaF. The immuno-absorbed material was washed 3 times with 1×TBS/10 mM NaF, 3 times with 1×TBS/1 M NaCl (Yang et al. (1997)) and lastly 3 times with 1×TBS. Immuno-absorbed material to be treated with alkaline phosphatase was washed with 50 mM Tris, pH 8.4, 1 mM MgCl2, 0.1 mM ZnCl2, 25% glycerol and then incubated with 5 U CIAP for 1 hour at 30° C. and then washed 6 times with 1×TBS. ACF-antibody complexes were eluted with 3 M sodium thiocyanate, acetone precipitated and analyzed by 10.5% SDS-PAGE followed by autoradiography and/or western blotting with ACF NT antibody. For ACF immunoprecipitation from gradient fractions an equal volume of pooled gradient fractions from sedimentation zones of interest were reacted with sub-saturating amounts of ACF CT antibody to ensure that the recovery of phospho-ACF was not simply a reflection of ACF abundance in each zone.
To evaluate this, cytoplasmic and nuclear extracts from radiolabeled primary hepatocyte cultures were sedimented through 10%-50% glycerol gradients. […] The ACF immunoprecipitates were resolved by SDS-PAGE, transferred to nitrocellulose, autoradiographed and subjected to phosphorimager scanning to detect and quantify radiolabeled proteins prior to immunoblotting with the ACF NT antibody.

PKC [3] = conditions: cited from earlier work; remark: listed apart in the source
ACF64 = experiment: ACF phosphorylation in 32P-labeled McArdle cells; assay type: cell-based, rat; conditions: 6 hour
Protocol: Numerous kinase inhibitors were evaluated but only those acting on Protein Kinase C affected editing activity. […] Cell extracts were immunoprecipitated with the ACF C-terminal specific antibody and analyzed by PAGE and autoradiography (FIG. 23). […] However, at and above the IC50 of PKC, phosphorylation of ACF64 was inhibited by 90% and 100%.

PKA [4] = conditions: cited from earlier work; remark: listed apart in the source
[5] = 10 mg/kg per day IP, 26 day period; cited from earlier work

Compound: CC(C)[C@H]1C(=O)N[C@H](CO)Cc2c[nH]c3cccc(c23)N1C [Indolactam V]
EC50 (PKC [1]): 0.2 µM | apoB mRNA editing, Mean (apoB mRNA editing; 12 μM): 92.47% | editing activity compared to solvent treated controls (from 65%) (apoB mRNA editing; 12 μM, SEM 4.8, n=2): 92% | apoB mRNA editing, Mean (apoB mRNA editing; 120 μM): 91.57% | effect on apoB mRNA editing (apoB mRNA editing; concentration not given): stimulated editing

effect on editing in hepatocytes (apoB mRNA editing): stimulated
Compound: NCCNS(=O)(=O)c1cccc2c(Cl)cccc12 [A3]
IC50 (PKA [2]): 4 µM | concentration at which ACF phosphorylation was inhibited (ACF): ≥ 40 µM | IC50 (PKC [3]): 47 µM | inhibition of ACF64 phosphorylation (ACF64; above the IC50 of PKC (120 μM)): 100% | decrease of ACF phosphorylation relative to untreated cells (ACF64; at the IC50 of PKA (4 μM)): 20% | inhibition of ACF64 phosphorylation (ACF64; at the IC50 of PKC (40 μM)): 90%

Compound: Nc1ncnc2c1nc(Sc1ccc(Cl)cc1)n2[C@@H]1O[C@@H]2COP(=O)(O)O[C@H]2[C@H]1O [8-cpt cAMP]
EC50 (PKA [4]): 2 µM | apoB mRNA editing, Mean (apoB mRNA editing; 2 μM): 61.2% | apoB mRNA editing, Mean (apoB mRNA editing; 20 μM): 59.3% | apoB mRNA editing, Mean (apoB mRNA editing; 200 μM): 59.6%

Compound: leptin: protein product of the ob gene, 16 kDa circulating hormone
decrease in weight at the conclusion of the study [5]: ~20%
